According to ChEMBL document CHEMBL2169777, “Chemical modulators working at pharmacological interface of target proteins” (Bioorg Med Chem, 2012):
Values belong to the molecule of their own block, whether it stands above or below them.

Legend:
Beta-nerve growth factor = Beta-nerve growth factor (Homo sapiens, UniProt P01138); experiment: Inhibition of NGF binding to p75NTR
[1] = Inhibition of IL2 receptor binding to IL2 alpha receptor by scintillation proximity assay

Chain of Beta-nerve growth factor (P01138 122-241 limits assumed): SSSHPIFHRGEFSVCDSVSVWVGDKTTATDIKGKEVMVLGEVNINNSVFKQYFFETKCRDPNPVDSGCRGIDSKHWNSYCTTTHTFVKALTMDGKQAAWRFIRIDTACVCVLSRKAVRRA

IC50 (Beta-nerve growth factor): 1 µM
SMILES: Cc1cc2nc3c(=O)[nH]c(=O)nc-3n(C)c2cc1C=O

IC50 [1]: 3 µM
SMILES: COC(=O)[C@H](Cc1ccc(C#Cc2ccccc2)cc1)NC(=O)C[C@H]1CCCN(C(=N)N)C1

Ki [1]: 0.06 µM
SMILES: CC(C)C[C@@H](NC(=N)N)C(=O)NCC(=O)N1CCC(c2cc(-c3ccc(OCc4ccc(C(=O)O)o4)c(Cl)c3Cl)nn2C)CC1
